Laboratory results from patent publication US11912668B2, “GCN2 and perk kinase inhibitors and methods of use thereof” (Deciphera Pharmaceuticals, LLC, priority 2020, dated 2024).

Experiments:
PERK kinase = PERK kinase (Homo sapiens (Human), UniProt Q9NZJ5); assay: Biochemical assay for PERK (coupled pyruvate kinase/lactate dehydrogenase assay); conditions: 1 mM ATP, rate from 2-3 h time frame
Description: Activity of PERK kinase was determined spectroscopically using a coupled pyruvate kinase/lactate dehydrogenase assay that continuously monitors the ATP hydrolysis-dependent oxidation of NADH (e.g., Schindler et al. Science (2000) 289: 1938-1942). Assays were conducted in 384-well plates (100 μL final volume) using 10 nM PERK (from Beryllium), 0.25 mg/mL Myelin Basic Protein substrate, 1.5 units pyruvate kinase, 2.1 units lactate dehydrogenase, 1 mM phosphoenol pyruvate, 0.28 mM NADH and 1 mM ATP in assay buffer (100 mM Tris, pH 7.5, 15 mM MgCl2, 0.5 mM DTT, 0.004% (w/v) BSA, and 0.004% Triton X-100). Inhibition of PERK was measured by adding serial diluted test compound (final assay concentration of 1% DMSO). A decrease in absorption at 340 nm was monitored continuously for 6 hours at 30° C. on a multi-mode microplate reader (BioTek). The reaction rate was calculated using the 2-3 h time frame. The reaction rate at each concentration of compound was converted to percent inhibition using controls (i.e. reaction with no test compound and reaction with a known inhibitor) and IC50 values were calculated using software routines in Prism (GraphPad software).

GCN2 kinase = GCN2 kinase (Homo sapiens (Human), UniProt Q9P2K8); assay: Biochemical assay for GCN2 (TR-FRET kinase activity assay); conditions: 1 mM ATP, 3-hour incubation
GCN2 kinase, sequence (Q9P2K8 whole entry): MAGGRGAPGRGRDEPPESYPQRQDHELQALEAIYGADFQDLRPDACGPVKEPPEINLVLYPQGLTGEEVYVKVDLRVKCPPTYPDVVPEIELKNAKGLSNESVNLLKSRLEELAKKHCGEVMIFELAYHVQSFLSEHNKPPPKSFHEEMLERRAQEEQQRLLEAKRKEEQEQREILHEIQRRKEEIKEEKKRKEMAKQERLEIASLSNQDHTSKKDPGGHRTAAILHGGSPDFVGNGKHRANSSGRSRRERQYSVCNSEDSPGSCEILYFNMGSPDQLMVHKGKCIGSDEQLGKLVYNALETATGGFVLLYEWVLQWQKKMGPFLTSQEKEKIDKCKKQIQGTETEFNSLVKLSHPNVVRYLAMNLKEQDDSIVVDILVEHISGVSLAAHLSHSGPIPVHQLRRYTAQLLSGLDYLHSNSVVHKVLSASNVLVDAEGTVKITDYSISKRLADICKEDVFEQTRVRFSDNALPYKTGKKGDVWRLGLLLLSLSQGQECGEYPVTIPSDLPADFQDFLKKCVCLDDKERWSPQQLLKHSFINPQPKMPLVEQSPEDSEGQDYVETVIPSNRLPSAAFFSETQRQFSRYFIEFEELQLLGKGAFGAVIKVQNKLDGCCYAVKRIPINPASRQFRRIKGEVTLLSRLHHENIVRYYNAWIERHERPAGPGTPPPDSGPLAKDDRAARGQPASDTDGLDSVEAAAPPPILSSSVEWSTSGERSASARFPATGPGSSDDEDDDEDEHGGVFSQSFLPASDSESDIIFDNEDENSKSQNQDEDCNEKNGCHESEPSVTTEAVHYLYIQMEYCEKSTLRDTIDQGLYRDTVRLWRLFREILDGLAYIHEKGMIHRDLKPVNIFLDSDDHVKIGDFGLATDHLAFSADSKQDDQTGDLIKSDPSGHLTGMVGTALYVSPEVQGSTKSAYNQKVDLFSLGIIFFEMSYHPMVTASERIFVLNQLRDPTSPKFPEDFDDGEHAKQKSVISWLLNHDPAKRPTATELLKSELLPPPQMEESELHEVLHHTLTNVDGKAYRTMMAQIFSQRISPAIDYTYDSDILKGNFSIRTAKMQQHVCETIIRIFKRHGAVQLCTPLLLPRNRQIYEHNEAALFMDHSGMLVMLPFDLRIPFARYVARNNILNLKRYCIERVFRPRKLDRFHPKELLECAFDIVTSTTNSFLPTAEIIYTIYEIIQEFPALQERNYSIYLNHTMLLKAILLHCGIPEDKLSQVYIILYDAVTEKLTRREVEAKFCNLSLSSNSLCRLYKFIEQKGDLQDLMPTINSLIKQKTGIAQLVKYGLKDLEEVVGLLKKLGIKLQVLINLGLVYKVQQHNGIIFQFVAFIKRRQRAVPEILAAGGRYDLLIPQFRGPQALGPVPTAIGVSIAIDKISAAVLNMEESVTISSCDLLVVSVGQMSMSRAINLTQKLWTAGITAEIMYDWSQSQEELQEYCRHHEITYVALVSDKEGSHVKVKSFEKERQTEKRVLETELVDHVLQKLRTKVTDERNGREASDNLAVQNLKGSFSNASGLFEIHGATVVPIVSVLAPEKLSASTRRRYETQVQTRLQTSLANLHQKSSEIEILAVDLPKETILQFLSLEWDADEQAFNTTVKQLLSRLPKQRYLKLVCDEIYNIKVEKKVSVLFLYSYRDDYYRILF
Description: Activity of GCN2 kinase was determined using a TR-FRET kinase activity assay (e.g. Riddle et al. Analytical Biochemistry (2006) 356(1) 108-116). Assays were conducted in 384-well plates (13 μL assay volume) using 2 nM GCN2 (Carna Biosciences), 130 nM GFP-EIf2α (Invitrogen), 0.2 mg/mL E. coli tRNA (sigma) and 1 mM ATP in kinase buffer (Invitrogen). Inhibition of GCN2 was measured by adding serial diluted test compound (final assay concentration of 0.5% DMSO) followed by a 3-hour incubation. Tb-peIF2α (pSer52) antibody (Invitrogen) (2 nM final assay concentration) in kinase buffer containing ETDA (final assay concentration of 20 mM) was added. After a 60 min incubation at room temperature, TR-FRET was monitored using an excitation wavelength of 340 nm and emission wavelengths of 490 nm and 520 nm. The emission ratio (520/490) at each compound concentration of was converted to percent inhibition using controls (i.e. reaction with no test compound and reaction with a known inhibitor) and IC50 values were calculated by fitting a four-parameter sigmoidal curve to the data using Prism (GraphPad software).

PERK kinase, sequence (Q9NZJ5 other isoform, or with tags, fused parts or gaps): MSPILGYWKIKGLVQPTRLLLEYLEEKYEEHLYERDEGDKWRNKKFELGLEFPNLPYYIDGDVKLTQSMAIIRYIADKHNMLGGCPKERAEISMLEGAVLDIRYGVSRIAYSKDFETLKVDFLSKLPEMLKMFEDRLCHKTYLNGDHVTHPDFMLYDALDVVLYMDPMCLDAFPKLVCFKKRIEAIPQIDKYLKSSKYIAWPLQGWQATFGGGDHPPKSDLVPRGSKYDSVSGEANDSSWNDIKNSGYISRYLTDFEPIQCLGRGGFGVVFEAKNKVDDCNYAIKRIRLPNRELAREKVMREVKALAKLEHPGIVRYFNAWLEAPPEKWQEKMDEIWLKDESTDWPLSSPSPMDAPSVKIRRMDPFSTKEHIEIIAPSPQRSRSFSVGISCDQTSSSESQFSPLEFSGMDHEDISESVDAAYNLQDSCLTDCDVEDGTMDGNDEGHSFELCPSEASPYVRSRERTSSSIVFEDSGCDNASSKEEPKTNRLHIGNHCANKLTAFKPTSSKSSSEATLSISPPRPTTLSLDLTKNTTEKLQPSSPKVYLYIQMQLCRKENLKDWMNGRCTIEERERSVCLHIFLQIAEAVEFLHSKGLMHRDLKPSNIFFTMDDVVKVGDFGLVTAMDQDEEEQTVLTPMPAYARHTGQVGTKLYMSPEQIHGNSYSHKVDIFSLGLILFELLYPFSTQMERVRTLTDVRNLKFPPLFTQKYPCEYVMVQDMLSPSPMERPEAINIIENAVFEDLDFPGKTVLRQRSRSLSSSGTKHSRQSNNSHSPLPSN

Compound | IC50 (PERK kinase) | IC50 (GCN2 kinase)
CNc1ncc2cc(-c3cc(NS(=O)(=O)c4cccnc4)c(F)cc3C)c(C)nc2n1 [Example 1, N-(2-fluoro-4-methyl-5-(7-methyl-2-(methylamino)pyrido[2,3-d]pyrimidin-6-yl)phenyl)pyridine-3-sulfonamide] | 1000 to 10000 nM | 1000 to 10000 nM
CNc1cc2nc(C)c(-c3cc(NS(=O)(=O)c4cc(Cl)cnc4OC)c(F)cc3F)cc2cn1 [Example 5, 5-chloro-N-(2,4-difluoro-5-(2-methyl-7-(methylamino)-1,6-naphthyridin-3-yl)phenyl)-2-methoxypyridine-3-sulfonamide] | 500 to 1000 nM | 100 to 500 nM
CNc1cc2nc(C)c(-c3ccc(F)c(NS(=O)(=O)c4cc(Cl)cnc4OC)c3)cc2cn1 [Example 7] | 100 to 500 nM | 500 to 1000 nM
CNc1ncc2cc(-c3cc(NS(=O)(=O)c4cc(Cl)cnc4OC)c(F)cc3C)c(NC)nc2n1 [Example 10] | 1000 to 10000 nM | 500 to 1000 nM
CNc1ncc2cc(-c3cc(NS(=O)(=O)c4cc(Cl)cnc4OC)c(F)cc3F)c(C)nc2n1 [Example 12] | 1000 to 10000 nM | 500 to 1000 nM
CNc1ncc2cc(-c3cc(NS(=O)(=O)c4cc(Cl)cnc4OC)c(F)cc3F)c(NC)nc2n1 [Example 13] | 1000 to 10000 nM | 500 to 1000 nM
CNc1cc2nc(C)c(-c3cc(NS(=O)(=O)c4cc(Cl)cnc4OC)c(F)cc3Br)cc2cn1 [Example 18] | 1000 to 10000 nM | 500 to 1000 nM
CNc1ncc2cc(-c3ccc(F)c(NS(=O)(=O)c4cc(Cl)cnc4OC)c3)c(C)nc2n1 [Example 20] | 1000 to 10000 nM | 1000 to 10000 nM
CNc1ncc2cc(-c3cc(NS(=O)(=O)c4cc(Cl)cnc4OC)c(C)cc3F)c(C)nc2n1 [Example 21] | 1000 to 10000 nM | 1000 to 10000 nM
CNc1ncc2cc(-c3cc(NS(=O)(=O)c4cc(Cl)cnc4OC)ccc3C)c(NC)nc2n1 [Example 24] | 100 to 500 nM | 100 to 500 nM
COc1ncc(Cl)cc1S(=O)(=O)Nc1ccc(C)c(-c2ccc3cc(N)ncc3c2)c1 [Example 28] | 100 to 500 nM | 1000 to 10000 nM
COc1ncc(Cl)cc1S(=O)(=O)Nc1cccc(-c2ccc3cc(N)ncc3c2)c1F [Example 29] | ≤ 100 nM | 100 to 500 nM
CNc1cc2nc(C)c(-c3cc(NS(=O)(=O)c4cc(Cl)cnc4OC)ccc3C)cc2cn1 [Example 32] | ≤ 100 nM | ≤ 100 nM
CNc1ncc2cc(-c3cc(NS(=O)(=O)c4cc(Cl)cnc4OC)cc(F)c3C)c(NC)nc2n1 [Example 34] | 100 to 500 nM | ≤ 100 nM
CNc1ncc2cc(-c3cc(F)cc(NS(=O)(=O)c4cc(Cl)cnc4OC)c3)ccc2n1 [Example 37] | – | 1000 to 10000 nM
CNc1ncc2cc(-c3cc(NS(=O)(=O)c4cncc(Cl)c4)c(F)cc3C)c(C)nc2n1 [Example 42] | 1000 to 10000 nM | 1000 to 10000 nM
CNc1ncc2cc(-c3cccc(NS(=O)(=O)c4cc(Cl)cnc4OC)c3)ccc2n1 [Example 43] | 1000 to 10000 nM | 1000 to 10000 nM
CNc1ncc2cc(-c3ccc(F)c(NS(=O)(=O)c4cc(Cl)cnc4OC)c3F)c(C)nc2n1 [Example 46] | 1000 to 10000 nM | 100 to 500 nM
CNc1ncc2cc(-c3cccc(NS(=O)(=O)c4cc(Cl)cnc4OC)c3)c(C)nc2n1 [Example 47] | 100 to 500 nM | ≤ 100 nM
CNc1ncc2cc(-c3cccc(NS(=O)(=O)c4cc(Cl)cnc4OC)c3C)ccc2n1 [Example 52] | 100 to 500 nM | 100 to 500 nM
CNc1ncc2cc(-c3cc(NS(=O)(=O)c4cc(Cl)cnc4OC)ccc3F)ccc2n1 [Example 54] | 100 to 500 nM | 500 to 1000 nM
CNc1ncc2cc(-c3cc(NS(=O)(=O)c4cc(Cl)cnc4OC)cc(F)c3F)ccc2n1 [Example 55] | 100 to 500 nM | 500 to 1000 nM
CNc1cc2ncc(-c3cc(F)cc(NS(=O)(=O)c4cc(Cl)cnc4OC)c3)cc2cn1 [Example 58] | 1000 to 10000 nM | 1000 to 10000 nM
CNc1cc2ncc(-c3cc(NS(=O)(=O)c4cc(Cl)cnc4OC)ccc3F)cc2cn1 [Example 60] | 500 to 1000 nM | 100 to 500 nM
CNc1ncc2cc(-c3cc(NS(=O)(=O)c4cc(Cl)cnc4OC)ccc3Cl)ccc2n1 [Example 69] | ≤ 100 nM | 100 to 500 nM
CNc1ncc2cc(-c3cccc(NS(=O)(=O)c4ccc(OC)c(Cl)c4)c3F)ccc2n1 [Example 70] | 100 to 500 nM | 1000 to 10000 nM
CNc1ncc2cc(-c3cccc(NS(=O)(=O)c4ccc(Br)c(C(F)(F)F)c4)c3F)ccc2n1 [Example 71] | 1000 to 10000 nM | 1000 to 10000 nM

Compound | IC50 (PERK kinase) | IC50 (GCN2 kinase)
CNc1ncc2cc(-c3cccc(NS(=O)(=O)c4cc(F)c(Br)cc4F)c3F)ccc2n1 [Example 72] | 100 to 500 nM | 100 to 500 nM
CNc1ncc2cc(-c3c(F)ccc(NS(=O)(=O)c4cc(Cl)cnc4OC)c3F)c(NC)nc2n1 [Example 73] | 100 to 500 nM | 100 to 500 nM
CNc1ncc2cc(-c3cc(NS(=O)(=O)c4cc(Cl)cc(Cl)c4)c(F)cc3C)c(C)nc2n1 [Example 75] | 100 to 500 nM | 500 to 1000 nM
CNc1ncc2cc(-c3cc(NS(=O)(=O)c4cc(Cl)cnc4OC)ccc3C(F)(F)F)ccc2n1 [Example 76] | 1000 to 10000 nM | 1000 to 10000 nM
CNc1ncc2cc(-c3cc(NS(=O)(=O)c4cc(Cl)cnc4OC)ccc3C(F)(F)F)c(C)nc2n1 [Example 80] | 1000 to 10000 nM | 500 to 1000 nM
CNc1ncc2cc(-c3cc(NS(=O)(=O)c4cc(Cl)cnc4OC)ccc3OC)ccc2n1 [Example 81] | 1000 to 10000 nM | 1000 to 10000 nM
CNc1ncc2cc(-c3cc(NS(=O)(=O)c4cc(Cl)cnc4OC)ccc3OC)c(C)nc2n1 [Example 82] | 1000 to 10000 nM | 1000 to 10000 nM
CNc1ncc2cc(-c3cccc(NS(=O)(=O)c4cc(Cl)cc(OC)c4Cl)c3F)ccc2n1 [Example 83] | ≤ 100 nM | 100 to 500 nM
CNc1ncc2cc(-c3cccc(NS(=O)(=O)c4ccc(OC)c(C)c4)c3F)ccc2n1 [Example 91] | 100 to 500 nM | 1000 to 10000 nM
CNc1ncc2cc(-c3cc(Cl)cc(NS(=O)(=O)c4cc(Cl)cnc4OC)c3)c(NC)nc2n1 [Example 94] | 1000 to 10000 nM | 500 to 1000 nM
CNc1ncc2cc(-c3cccc(NS(=O)(=O)c4cc(Cl)cnc4OC)c3F)c(NC3COC3)nc2n1 [Example 98] | 500 to 1000 nM | 100 to 500 nM
CNc1ncc2cc(-c3cccc(NS(=O)(=O)c4cc(Cl)cnc4OC)c3F)c(NCC3COC3)nc2n1 [Example 99] | 100 to 500 nM | 100 to 500 nM
CNc1ncc2cc(-c3cc(F)cc(NS(=O)(=O)c4cc(Cl)cc(C(C)(C)O)c4Cl)c3)c(NC)nc2n1 [Example 120] | – | 1000 to 10000 nM
CNc1nc2nc(NC(C)(C)C)ncc2cc1-c1cccc(NS(=O)(=O)c2cc(Cl)cnc2OC)c1F [Example 124] | – | 100 to 500 nM
CNc1ncc2cc(-c3cccc(NS(=O)(=O)c4cc(OC)c(Cl)cc4OC)c3F)c(NC)nc2n1 [Example 130] | – | 500 to 1000 nM
CNc1ncc2cc(-c3cccc(NS(=O)(=O)c4cccnc4C(F)(F)F)c3F)c(NC)nc2n1 [Example 131] | – | 100 to 500 nM
CNc1ncc2cc(-c3cccc(NS(=O)(=O)c4cc(C(C)(C)C)ccc4OC)c3F)c(NC)nc2n1 [Example 134] | – | 1000 to 10000 nM
CNc1nc2nc(NC3COC3)ncc2cc1-c1cccc(NS(=O)(=O)c2cc(Cl)cnc2OC)c1F [Example 138] | – | 100 to 500 nM
CNc1nc2nc(NCCOC)ncc2cc1-c1cccc(NS(=O)(=O)c2cc(Cl)cnc2OC)c1F [Example 139] | – | 100 to 500 nM
CNc1ncc2cc(-c3cccc(NS(=O)(=O)c4cc(OC)ccc4OC)c3F)c(NC)nc2n1 [Example 140] | – | 100 to 500 nM
CNc1ncc2cc(-c3cccc(NS(=O)(=O)c4ccc(C#N)cc4Cl)c3F)c(NC)nc2n1 [Example 141] | – | 1000 to 10000 nM
CNc1ncc2cc(-c3cccc(NS(=O)(=O)c4cccc(C(C)=O)c4Cl)c3F)c(NC)nc2n1 [Example 146] | – | 100 to 500 nM
CNc1nc2nc(NCC3COC3)ncc2cc1-c1cccc(NS(=O)(=O)c2cc(Cl)cnc2OC)c1F [Example 149] | – | 500 to 1000 nM
CNc1ncc2cc(-c3cccc(NS(=O)(=O)c4cccc(C(=O)OC)c4Cl)c3F)c(NC)nc2n1 [Example 150] | – | 500 to 1000 nM
CNc1ncc2cc(-c3cccc(NS(=O)(=O)c4cc(C#N)cnc4OC)c3F)c(NC)nc2n1 [Example 152] | – | 100 to 500 nM
CNc1ncc2cc(-c3cccc(NS(=O)(=O)c4cc(Cl)c(C)cc4OC)c3F)c(NC)nc2n1 [Example 157] | – | ≤ 100 nM
CNc1nc2nc(NC(=O)C3CC3)ncc2cc1-c1cccc(NS(=O)(=O)c2cc(Cl)cnc2OC)c1F [Example 172] | – | 100 to 500 nM
